# Experimental data published in patent US12495798B2, “Nicotinamide compound and herbicidal composition comprising compound” (KOREA RESEARCH INSTITUTE OF CHEMICAL TECHNOLOGY, priority 2019, dated 2025).
# Columns and labels:
# Assay type in all cases: in vivo
# sorghum [1] = test: Herbicidal activity test against upland field weeds (soil treatment test); set-up: key to Soil treatment herbicidal activity, Sorghum: 0 (no control); 100 (complete control); conditions: scale 0 (no control) to 100 (complete control)
# Summary of the method: (§1)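 Pre-emergence test: seeds or rootstocks were sown in fertilized sandy loam, and the next day the soil surface was sprayed with compound at 50 or 75 g a.i./ha in 50% acetone/0.1% Tween-20. Plants were grown in a greenhouse (30±5 °C, 14/10 h light/dark), then visually scored 0–100 against untreated at 14 d (21 d if needed).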
# fall panicum [2] = test: as above; set-up: key to Soil treatment herbicidal activity, Fall panicum: 0 (no control); 100 (complete control); conditions: scale 0 (no control) to 100 (complete control); for pest or weed control at 75 g/ha: Panicum dichotomiflorum, 75 g ai/ha; for Soil treatment herbicidal activity, Fall panicum: 50 g ai/ha
# Summary of the method: as §1
# cocklebur [3] = test: as above; set-up: key to Soil treatment herbicidal activity, Cocklebur: 0 (no control); 100 (complete control); conditions: scale 0 (no control) to 100 (complete control)
# Summary of the method: as §1
# barnyard grass [4] = test: as above; set-up: key to Soil treatment herbicidal activity, barnyard grass: 0 (no control); 100 (complete control); conditions: scale 0 (no control) to 100 (complete control)
# Summary of the method: as §1
# barnyard grass [5] = test: Herbicidal activity test against upland field weeds (foliar treatment test); set-up: key to Foliar treatment herbicidal activity, barnyard grass: 0 (no control); 100 (complete control); conditions: scale 0-100; for pest or weed control at 75 g/ha: 75 g ai/ha
# Summary of the method: (§2)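 Weeds were raised from seed or rootstocks in horticultural soil in a greenhouse (30±5° C., 14/10 h light/dark), then foliage was hand-sprayed with compound at 50 or 75 g a.i./ha in 50% acetone with 0.1% Tween-20. Control was scored visually 0–100 against untreated plants after 14 days, or 21 if needed.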
# black nightshade [6] = test: as above; set-up: key to Foliar treatment herbicidal activity, black nightshade: 0 (no control); 100 (complete control); conditions: scale 0-100; for pest or weed control at 75 g/ha: 75 g ai/ha
# Summary of the method: as §2
# bindweed [7] = test: Herbicidal activity test against upland field weeds (soil treatment test); set-up: key to Soil treatment herbicidal activity, Bindweed: 0 (no control); 100 (complete control); conditions: scale 0 (no control) to 100 (complete control)
# Summary of the method: as §1
# cocklebur [8] = test: Herbicidal activity test against upland field weeds (foliar treatment test); set-up: key to Foliar treatment herbicidal activity, Cocklebur: 0 (no control); 100 (complete control); conditions: scale 0-100; for pest or weed control at 75 g/ha: Xanthium strumarium, 75 g ai/ha; for Foliar treatment herbicidal activity, Cocklebur: 50 g ai/ha
# Summary of the method: as §2
# sorghum [9] = test: as above; set-up: key to Foliar treatment herbicidal activity, Sorghum: 0 (no control); 100 (complete control); conditions: scale 0-100; for plant injury at 75 g/ha: 75 g ai/ha
# Summary of the method: as §2
# quack grass [10] = test: as above; set-up: key to Foliar treatment herbicidal activity, quack grass: 0 (no control); 100 (complete control); conditions: scale 0-100
# Summary of the method: as §2
# crabgrass [11] = test: as above; set-up: key to Foliar treatment herbicidal activity, Crabgrass: 0 (no control); 100 (complete control); conditions: scale 0-100; for pest or weed control at 75 g/ha: Digitaria sanguinalis, 75 g ai/ha; for Foliar treatment herbicidal activity, Crabgrass: 50 g ai/ha
# Summary of the method: as §2
# black nightshade [12] = test: Herbicidal activity test against upland field weeds (soil treatment test); set-up: key to Soil treatment herbicidal activity, black nightshade: 0 (no control); 100 (complete control); conditions: scale 0 (no control) to 100 (complete control); for pest or weed control at 50 g/ha: 50 g ai/ha
# Summary of the method: as §1
# velvetleaf [13] = test: as above; set-up: key to Soil treatment herbicidal activity, velvet leaf: 0 (no control); 100 (complete control); conditions: scale 0 (no control) to 100 (complete control)
# Summary of the method: as §1
# fall panicum [14] = test: Herbicidal activity test against upland field weeds (foliar treatment test); set-up: key to Foliar treatment herbicidal activity, Fall panicum: 0 (no control); 100 (complete control); conditions: scale 0-100; for pest or weed control at 75 g/ha: 75 g ai/ha
# Summary of the method: as §2
# indian jointvetch [15] = test: as above; set-up: key to Foliar treatment herbicidal activity, Indian jointvetch: 0 (no control); 100 (complete control); conditions: scale 0-100; for pest or weed control at 75 g/ha: 75 g ai/ha; for Foliar treatment herbicidal activity, Indian jointvetch: 50 g ai/ha
# Summary of the method: as §2
# crabgrass [16] = test: Herbicidal activity test against upland field weeds (soil treatment test); set-up: key to Soil treatment herbicidal activity, Crabgrass: 0 (no control); 100 (complete control); conditions: scale 0 (no control) to 100 (complete control)
# Summary of the method: as §1
# bindweed [17] = test: Herbicidal activity test against upland field weeds (foliar treatment test); set-up: key to Foliar treatment herbicidal activity, Bindweed: 0 (no control); 100 (complete control); conditions: scale 0-100; for pest or weed control at 75 g/ha: 75 g ai/ha; for Foliar treatment herbicidal activity, Bindweed: 50 g ai/ha
# Summary of the method: as §2
# velvetleaf [18] = test: as above; set-up: key to Foliar treatment herbicidal activity, velvet leaf: 0 (no control); 100 (complete control); conditions: for pest or weed control at 75 g/ha: 75 g ai/ha
# Summary of the method: as §2
# quack grass [19] = test: Herbicidal activity test against upland field weeds (soil treatment test); set-up: key to Soil treatment herbicidal activity, quack grass: 0 (no control); 100 (complete control); conditions: scale 0 (no control) to 100 (complete control)
# Summary of the method: as §1
# indian jointvetch [20] = test: as above; set-up: key to Soil treatment herbicidal activity, Indian jointvetch: 0 (no control); 100 (complete control); conditions: scale 0 (no control) to 100 (complete control)
# Summary of the method: as §1
# [21] = Abutilon theophrasti, scale 0-100, read-out: Foliar treatment herbicidal activity, velvet leaf
SMILES,pest or weed control at 75 g/ha (fall panicum [2]),pest or weed control at 75 g/ha (barnyard grass [5]; Echinochloa crus-galli),pest or weed control at 75 g/ha (black nightshade [6]; Solanum nigrum),pest or weed control at 75 g/ha (cocklebur [8]),plant injury at 75 g/ha (sorghum [9]; Sorghum),"Foliar treatment herbicidal activity, quack grass (quack grass [10]; 75 g ai/ha)",pest or weed control at 75 g/ha (crabgrass [11]),pest or weed control at 75 g/ha (fall panicum [14]; Panicum dichotomiflorum),pest or weed control at 75 g/ha (indian jointvetch [15]),pest or weed control at 75 g/ha (bindweed [17]),pest or weed control at 75 g/ha (velvetleaf [18]; [21]),"Soil treatment herbicidal activity, Sorghum (sorghum [1]; 50 g ai/ha)","Soil treatment herbicidal activity, Fall panicum (fall panicum [2])","Soil treatment herbicidal activity, Cocklebur (cocklebur [3]; 50 g ai/ha)","Soil treatment herbicidal activity, barnyard grass (barnyard grass [4]; 50 g ai/ha)","Soil treatment herbicidal activity, Bindweed (bindweed [7]; 50 g ai/ha)","Foliar treatment herbicidal activity, Cocklebur (cocklebur [8])","Foliar treatment herbicidal activity, Crabgrass (crabgrass [11])",pest or weed control at 50 g/ha (black nightshade [12]; Solanum nigrum),"Foliar treatment herbicidal activity, Indian jointvetch (indian jointvetch [15])",further results
"CN(CCc1nnn(C)n1)c1nc(C(F)(F)F)ccc1C(=O)Nc1nnnn1C [Compound No. 2-36, 2-(methyl(2-(2-methyl-2H-tetrazol-5-yl)ethyl)amino)-N-(1-methyl-1H-tetrazol-5-yl)-6-(trifluoromethyl)nicotinamide]",98%,90%,95%,70%,20%,0,60%,50%,60%,70%,50%,,,,,,,,,,"plant injury at 75 g/ha (sorghum [1]; Sorghum, 75 g ai/ha): 20%; pest or weed control at 75 g/ha (cocklebur [3]; Xanthium strumarium, 75 g ai/ha): 90%; Soil treatment herbicidal activity, barnyard grass (barnyard grass [4]; 75 g ai/ha): 100; pest or weed control at 75 g/ha (bindweed [7]; 75 g ai/ha): 70%; Soil treatment herbicidal activity, black nightshade (black nightshade [12]; 75 g ai/ha): 100; Soil treatment herbicidal activity, velvet leaf (velvetleaf [13]; 75 g ai/ha): 100; Soil treatment herbicidal activity, Crabgrass (crabgrass [16]; 75 g ai/ha): 100; pest or weed control at 75 g/ha (quack grass [19]; 75 g ai/ha): 10%; Soil treatment herbicidal activity, Indian jointvetch (indian jointvetch [20]; 75 g ai/ha): 100"
"CCc1cc(C(=O)Nc2nnnn2C)c(OCc2nnnn2C)nc1C(F)(F)F [Compound No. 1-19, 5-ethyl-N-(1-methyl-1H-tetrazol-5-yl)-2-((1-methyl-1H-tetrazol-5-yl)methoxy)-6-(trifluoromethyl)nicotinamide]",,,,,,,,,,,,0,0,0,0,0,0,0,98%,0,"Foliar treatment herbicidal activity, barnyard grass (barnyard grass [5]; 50 g ai/ha): 0; pest or weed control at 50 g/ha (black nightshade [6]; Solanum nigrum, 50 g ai/ha): 90%; Foliar treatment herbicidal activity, Sorghum (sorghum [9]; 50 g ai/ha): 0; Foliar treatment herbicidal activity, quack grass (quack grass [10]; 50 g ai/ha): 0; pest or weed control at 50 g/ha (velvetleaf [13]; Abutilon theophrasti, 50 g ai/ha, read-out: Soil treatment herbicidal activity, velvet leaf): 20%; Foliar treatment herbicidal activity, Fall panicum (fall panicum [14]; 50 g ai/ha): 0; Soil treatment herbicidal activity, Crabgrass (crabgrass [16]; 50 g ai/ha): 0; Foliar treatment herbicidal activity, Bindweed (bindweed [17]): 0; pest or weed control at 50 g/ha (velvetleaf [18]; Abutilon theophrasti, 50 g ai/ha, scale 0-100, read-out: Foliar treatment herbicidal activity, velvet leaf): 20%; Soil treatment herbicidal activity, quack grass (quack grass [19]; 50 g ai/ha): 0; Soil treatment herbicidal activity, Indian jointvetch (indian jointvetch [20]; 50 g ai/ha): 0"
"CN(CCOCc1nnn(C)n1)c1nc(C(F)(F)F)ccc1C(=O)Nc1nnnn1C [Compound No. 2-34, 2-(methyl(2-((2-methyl-2H-tetrazol-5-yl)methoxy)ethyl)amino)-N-(1-methyl-1H-tetrazol-5-yl)-6-(trifluoromethyl)nicotinamide]",80%,70%,95%,40%,20%,0,60%,40%,60%,50%,50%,,,,,,,,,,"Soil treatment herbicidal activity, Sorghum (sorghum [1]; 75 g ai/ha): 0; Soil treatment herbicidal activity, Cocklebur (cocklebur [3]; 75 g ai/ha): 0; pest or weed control at 75 g/ha (barnyard grass [4]; Echinochloa crus-galli, 75 g ai/ha): 60%; Soil treatment herbicidal activity, Bindweed (bindweed [7]; 75 g ai/ha): 0; pest or weed control at 75 g/ha (black nightshade [12]; Solanum nigrum, 75 g ai/ha): 95%; pest or weed control at 75 g/ha (velvetleaf [13]; Abutilon theophrasti, 75 g ai/ha, read-out: Soil treatment herbicidal activity, velvet leaf): 60%; pest or weed control at 75 g/ha (crabgrass [16]; Digitaria sanguinalis, 75 g ai/ha): 70%; Soil treatment herbicidal activity, quack grass (quack grass [19]; 75 g ai/ha): 0; pest or weed control at 75 g/ha (indian jointvetch [20]; 75 g ai/ha): 70%"
"Cn1nnc(C[S+]([O-])Cc2nc(C(F)(F)F)ccc2C(=O)Nc2nnnn2C)n1 (centres unmarked) [Compound No. 2-104, N-(1-methyl-1H-tetrazol-5-yl)-2-((((2-methyl-2H-tetrazol-5-yl)methyl)sulfinyl)methyl)-6-(trifluoromethyl)nicotinamide]",,,,,,,,,,,,0,0,0,0,0,100,100,98%,100,"pest or weed control at 50 g/ha (barnyard grass [5]; Echinochloa crus-galli, 50 g ai/ha): 98%; Foliar treatment herbicidal activity, black nightshade (black nightshade [6]; 50 g ai/ha): 100; plant injury at 50 g/ha (sorghum [9]; Sorghum, 50 g ai/ha): 80%; pest or weed control at 50 g/ha (quack grass [10]; 50 g ai/ha): 30%; Soil treatment herbicidal activity, velvet leaf (velvetleaf [13]; 50 g ai/ha): 100; pest or weed control at 50 g/ha (fall panicum [14]; Panicum dichotomiflorum, 50 g ai/ha): 98%; Soil treatment herbicidal activity, Crabgrass (crabgrass [16]; 50 g ai/ha): 0; Foliar treatment herbicidal activity, Bindweed (bindweed [17]): 100; Foliar treatment herbicidal activity, velvet leaf (velvetleaf [18]; 50 g ai/ha, scale 0-100): 100; Soil treatment herbicidal activity, quack grass (quack grass [19]; 50 g ai/ha): 0; Soil treatment herbicidal activity, Indian jointvetch (indian jointvetch [20]; 50 g ai/ha): 0"
